Values joined by “and” are separate entries in the source; they are usually repeats but may differ in a detail not shown here. Identical values can stand only once.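 Cells were grown in 96-well plates and exposed to each compound for 48 hours at five concentrations; endpoints were interpolated linearly between bracketing concentrations, or set to the highest concentration if not reached. Here, GI50 denotes the concentration required for 50% inhibition of growth. TGI is the concentration that stops growth completely.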
The compounds below were run on MDA-MB-468 breast (assay: inhibition of tumour cell growth, NCI panel, 48 h).

Compared with `COc1ccc(/C=C\c2cc(OC)c(OC)c(OC)c2)cc1OCC(=O)Nc1nc2ccc(C(F)(F)F)cc2s1`, `COc1cc(/C=C/C(=O)c2ccc(Cl)cc2)ccc1OS(=O)(=O)c1ccc(C)cc1` is 3.9-fold higher in GI50: 2160 nM for the first, 8430 nM for the second.

Going from `Cc1cc2c(F)c(Oc3ncnn4cc(OC[C@@H](C)OC(=O)[C@H](C)N)c(C)c34)ccc2[nH]1` to `CN(C)Cc1ccc(C(=O)Nc2ccc3ncnc(Nc4ccc(Oc5cccc(F)c5)c(Cl)c4)c3c2)cc1`, the GI50 falls from 9230 nM to 1290 nM (7.2-fold).

Going from `Cc1ccc2c(N)c(C(=O)N[C@H]3CCc4cc(N5CC6CCC(C5)N6)ccc4C3)sc2n1` to `C[C@]12CC[C@@H]3c4ccc(O)cc4CC[C@H]3[C@@H]1CC[C@@H]2NS(=O)(=O)Cc1ccc(Cl)cc1`, the GI50 rises from 579 nM to 3630 nM (6.3-fold).

Compared with `N=C(N)CCCCCCCCC(=N)N`, `CCN(CC)CCCCCCCNc1c2ccc(Cl)cc2nc2ccc(OC)cc12` is 7.5-fold lower in GI50: 10100 nM for the first, 1340 nM for the second.

First: Nc1nc(-c2cccc([N+](=O)[O-])c2)c(N=Nc2ccc(Br)cc2)s1
Second: COc1ccc(-c2nc(-c3cn(C)c4ncccc34)cs2)cc1
The GI50 of the first is 2.9-fold higher: 11100 nM for the first, 3830 nM for the second.

Compared with `O=C(Oc1ccc(CCl)cc1)c1ccccc1`, `O=C(NC(=S)Nc1ccc(Cl)cc1)c1ccccc1` is 18-fold higher in GI50: 142 nM for the first, 2560 nM for the second.

Compared with `CC(NNC(=S)N1CCCCCC1)c1ccc2ccccc2n1` (centres undefined), `O=C(Nc1ccc(Cl)cc1)c1cc2ccccc2cc1O` is 2.7-fold higher in GI50: 603 nM for the first, 1610 nM for the second.

`Cc1[nH]c(/C=C2\C(=O)Nc3ccc(F)cc32)c(C)c1C(=O)NC[C@H](O)CN1CCOCC1` and `Cc1ccc2c(=O)c3cccc(CC(=O)O)c3oc2c1C` cannot be ordered by GI50: over 10000 nM for the first, over 100000 nM for the second.

`S=C(N/N=C/c1ccccn1)Nc1ccccn1` and `S=C(Nc1ccc(Cl)cc1)Nc1ccc(Cl)cc1` (tested in a mixture with another compound) are within 1.5-fold of each other in GI50: 1280 nM for the first, 1700 nM for the second.

Going from `CC1(C)N=C(N)N=C(N)N1c1cc(Cl)ccc1Cl` to `O=C(NOCC1CC1)c1ccc(F)c(F)c1Nc1ccc(I)cc1Cl`, the GI50 falls from 28600 nM to 2670 nM (11-fold).

First: C=C1C(=O)O[C@H]2[C@H]1CC/C(Cn1cc(-c3ccccc3)nn1)=C\CC[C@@]1(C)O[C@@H]21
Second: COc1ccc(-c2nc(-c3ccccc3)c(-c3ccccc3)n2C2CC2)cc1OC1CCCC1
The GI50 of the first is 70-fold lower: 953 nM for the first, 66800 nM for the second.

Compared with `CCC1=Cc2c(OC)cccc2OC12C=Cc1c(OC)cccc1O2` (centres undefined), `O=C(Nc1ncc(Cc2ccccc2Cl)s1)c1ccc2c(c1)OCCO2` is 2.1-fold lower in GI50: 951 nM for the first, 462 nM for the second.

First: O=C(Nc1cccc(-c2nc(-c3ccc(NC(=O)c4cccs4)cc3Cl)no2)c1)Nc1ccc(NC(=O)C2CC2)c(C(F)(F)F)c1
Second: Cc1nc2cccc(NCc3ccc(C(=O)NO)cc3)c2c(=O)n1-c1ccccc1
The GI50 of the first is 8.2-fold lower: 181 nM for the first, 1480 nM for the second.

First: COC(=O)/C(=C\c1c(C)[nH]c2ccccc12)S(=O)(=O)c1ccccc1
Second: O=C1C=Cc2ccccc2/C1=C/c1[nH]c(=O)[nH]c1O
The GI50 of the first is 2.3-fold higher: 6250 nM for the first, 2660 nM for the second.

First: O=C1CCC2(C=C(Br)C(=O)C(Br)=C2)O1
Second: CCOC(=O)Oc1c(OC)cc(C(=O)O[C@@H]2C[C@@H]3CN4CCc5c([nH]c6cc(OC)ccc56)[C@H]4C[C@@H]3[C@H](C(=O)OC)[C@H]2OC)cc1OC
The GI50 of the first is 5-fold lower: 1640 nM for the first, 8130 nM for the second.

Going from `COc1ccc(/C=C\c2cc(OC)c(OC)c(OC)c2)cc1OCC(=O)Nc1nc2ccc(C(F)(F)F)cc2s1` to `COc1ccc(-c2cn[nH]c2-c2cc(OC)c(OC)c(OC)c2)cc1N`, the TGI rises from 6250 nM to over 100000 nM.

First: Cc1cc2c(F)c(Oc3ncnn4cc(OC[C@@H](C)OC(=O)[C@H](C)N)c(C)c34)ccc2[nH]1
Second: CN(C)Cc1ccc(C(=O)Nc2ccc3ncnc(Nc4ccc(Oc5cccc(F)c5)c(Cl)c4)c3c2)cc1
The TGI of the first is 7.8-fold higher: 21800 nM for the first, 2790 nM for the second.

First: Cc1ccc2c(N)c(C(=O)N[C@H]3CCc4cc(N5CC6CCC(C5)N6)ccc4C3)sc2n1
Second: C[C@]12CC[C@@H]3c4ccc(O)cc4CC[C@H]3[C@@H]1CC[C@@H]2NS(=O)(=O)Cc1ccc(Cl)cc1
The TGI of the first is 8.1-fold lower: 2070 nM for the first, 16700 nM for the second.

Compared with `N=C(N)CCCCCCCCC(=N)N`, `CCN(CC)CCCCCCCNc1c2ccc(Cl)cc2nc2ccc(OC)cc12` is lower in TGI: over 100000 nM for the first, 2860 nM for the second.

Going from `Nc1nc(-c2cccc([N+](=O)[O-])c2)c(N=Nc2ccc(Br)cc2)s1` to `COc1ccc(-c2nc(-c3cn(C)c4ncccc34)cs2)cc1`, the TGI rises from 34200 nM to over 100000 nM.

First: O=C(Oc1ccc(CCl)cc1)c1ccccc1
Second: O=C(NC(=S)Nc1ccc(Cl)cc1)c1ccccc1
The TGI of the first is lower: 325 nM for the first, over 85300 nM for the second.

First: CC(NNC(=S)N1CCCCCC1)c1ccc2ccccc2n1 (centres undefined)
Second: O=C(Nc1ccc(Cl)cc1)c1cc2ccccc2cc1O
The TGI of the first is 4-fold higher: 28100 nM for the first, 7030 nM for the second.

`Cc1[nH]c(/C=C2\C(=O)Nc3ccc(F)cc32)c(C)c1C(=O)NC[C@H](O)CN1CCOCC1` and `Cc1ccc2c(=O)c3cccc(CC(=O)O)c3oc2c1C` cannot be ordered by TGI: over 10000 nM for the first, over 100000 nM for the second.

`S=C(N/N=C/c1ccccn1)Nc1ccccn1` and `S=C(Nc1ccc(Cl)cc1)Nc1ccc(Cl)cc1` (tested in a mixture with another compound) are within 1.5-fold of each other in TGI: 5760 nM for the first, 5110 nM for the second.

Going from `CC1(C)N=C(N)N=C(N)N1c1cc(Cl)ccc1Cl` to `O=C(NOCC1CC1)c1ccc(F)c(F)c1Nc1ccc(I)cc1Cl`, the TGI falls from over 100000 nM to 8210 nM.

Compared with `C=C1C(=O)O[C@H]2[C@H]1CC/C(Cn1cc(-c3ccccc3)nn1)=C\CC[C@@]1(C)O[C@@H]21`, `COc1ccc(-c2nc(-c3ccccc3)c(-c3ccccc3)n2C2CC2)cc1OC1CCCC1` is higher in TGI: 1970 nM for the first, over 165000 nM for the second.

Going from `CCC1=Cc2c(OC)cccc2OC12C=Cc1c(OC)cccc1O2` (centres undefined) to `COc1cc(/C=C/C(=O)c2ccc(Cl)cc2)ccc1OS(=O)(=O)c1ccc(C)cc1`, the TGI falls from over 100000 nM to 32100 nM.

Going from `O=C(Nc1cccc(-c2nc(-c3ccc(NC(=O)c4cccs4)cc3Cl)no2)c1)Nc1ccc(NC(=O)C2CC2)c(C(F)(F)F)c1` to `Cc1nc2cccc(NCc3ccc(C(=O)NO)cc3)c2c(=O)n1-c1ccccc1`, the TGI rises from 394 nM to 3100 nM (7.9-fold).

Going from `COC(=O)/C(=C\c1c(C)[nH]c2ccccc12)S(=O)(=O)c1ccccc1` to `O=C1C=Cc2ccccc2/C1=C/c1[nH]c(=O)[nH]c1O`, the TGI falls from over 100000 nM to 7630 nM.

Compared with `O=C1CCC2(C=C(Br)C(=O)C(Br)=C2)O1`, `O=C(Nc1ncc(Cc2ccccc2Cl)s1)c1ccc2c(c1)OCCO2` is higher in TGI: 4290 nM for the first, over 30600 nM for the second.

Compound `CCOC(=O)Oc1c(OC)cc(C(=O)O[C@@H]2C[C@@H]3CN4CCc5c([nH]c6cc(OC)ccc56)[C@H]4C[C@@H]3[C@H](C(=O)OC)[C@H]2OC)cc1OC` has a TGI of 23300 nM.

With `COc1ccc(-c2cn[nH]c2-c2cc(OC)c(OC)c(OC)c2)cc1N` the GI50 was < 10 nM and 31.4 nM.
In the case of `CNC(=O)c1cccc(-c2ccc3c(N4CCOC[C@@H]4C)nc(N4CCOC[C@@H]4C)nc3n2)c1`, the GI50 is reported as 43.6 nM and 116 nM and 68.1 nM.

For `CNC(=O)c1cccc(-c2ccc3c(N4CCOC[C@@H]4C)nc(N4CCOC[C@@H]4C)nc3n2)c1`, the TGI was 473 nM and 558 nM and 499 nM.

Source: PubChem BioAssay (NCI)
